Assay results taken from patent US20240058328A1, “MASITINIB FOR THE TREATMENT OF ALZHEIMER'S DISEASE” (AB SCIENCE, priority 2020, published 2024).

Test system: patients with Alzheimer's disease
Assay: Phase 3 study AB09004: change from baseline in ADAS-Cog score
Format: in vivo, human
Design: key to δLSM (ADAS-Cog) / 8LSM (ADAS-Cog): LSM diff. of ADAS-Cog change from baseline; negative = improvement
Conditions: for ALSM (ADAS-Cog) / 8LSM (ADAS-Cog) / ΔLSM (ADAS-Cog) / δLSM (ADAS-Cog): 4.5 mg/kg/day; for ALSM (ADAS-Cog) / ΔLSM (ADAS-Cog): vs placebo, week 24; for 8LSM (ADAS-Cog) / δLSM (ADAS-Cog): week 24 from baseline
Description: An international, multicenter, randomized, double-blind, placebo-controlled phase 3 study was conducted with the objective to evaluate oral masitinib at a dose of 4.5 mg/kg/day as a treatment for Alzheimer's disease.
Eligible patients, aged at least 50 years, were diagnosed with dementia of Alzheimer's type according to Diagnostic and Statistical Manual of Mental Disorders (DSM)-IV criteria, and probable Alzheimer's disease according to NINCDS-ADRDA (National Institute of Neurological and Communicative Diseases and Stroke/Alzheimer's Disease and Related Disorders Association) criteria. […] Patients with any other cause of dementia not due to Alzheimer's disease were ineligible for the study.
Eligible patients were treated during 24 weeks with masitinib at a dose of 4.5 mg/kg/day (mg per kilo body weight per day) or with placebo. Treatment was administered as add-on therapy in patients who had been treated for a minimum of 6 months with a stable dose of cholinesterase inhibitors (donepezil, rivastigmine or galantamine) and/or memantine, with no changes foreseen in therapy throughout the study.
Primary analysis was based on the co-primary endpoints of: • Change from baseline in Alzheimer's Disease Cooperative Study Activities of Daily Living (ADCS-ADL) score. The ADCS-ADL assesses the competence of patients with Alzheimer's disease in basic and instrumental activities of daily living (ADLs). • Change from baseline in Alzheimer's Disease Assessment Scale-Cognitive Subscale (ADAS-Cog). The ADAS-Cog assesses cognition and memory.
Treatment effect (masitinib versus placebo) was assessed based on absolute change from baseline to week 24 by using an analysis of covariance model (ANCOVA linear model) with the following factors: treatment, baseline value, and stratification criteria of baseline MMSE score, age, ADCS-ADL total score, and ADAS-Cog total score.
The ADAS-Cog version used in study AB09004 included 11 items regrouped as follows: language (items 1, 2, 3), praxia and gnosia (items 5, 7, 8, 9), memory (items 4, 10, 11), orientation (item 6). The items range either from 0 to 5 (items 1, 2, 3, 5, 7, 8, 9, 11), or from 0 to 8 (item 6), or from 0 to 10 (item 4), or from 0 to 12 (item 10). The global score, which is the sum of the 11 items, ranges from 0 to 70, with higher scores indicating greater cognitive impairment. Results are expressed as a least-squares means difference (δLSM) of absolute change in ADAS-Cog score from baseline; that is to say, the change over time in the ADAS-Cog score, or in other words the difference between the ADAS-Cog score at baseline and the ADAS-Cog score after treatment with masitinib or with placebo. A decrease in ADAS-Cog score with respect to baseline (i.e., a negative δLSM) indicates an improvement in the patient and therefore disease stability, whereas an increase in ADAS-Cog score with respect to baseline (i.e., a positive δLSM) indicates a worsening in the patient and therefore disease progression. Treatment-effect is reported as the difference between treatment-arms (ΔLSM) (calculated as δLSM[masitinib] minus δLSM[placebo]), with a negative value indicating a beneficial effect of treatment with masitinib as compared with placebo. In a scenario where both treatment-arms show worsening in cognitive function (i.e., a positive δLSM), then a negative ΔLSM indicates a beneficial treatment effect for masitinib, i.e., the rate of decline in masitinib treated patients is slower than that of patients from the placebo-arm. […]

Cc1ccc(NC(=O)c2ccc(CN3CCN(C)CC3)cc2)cc1Nc1nc(-c2cccnc2)cs1 [masitinib, 4-(4-methylpiperazin-1-ylmethyl)-N-[4-methyl-3-(4-pyridin-3ylthiazol-2-ylamino)phenyl]benzamide]
ALSM (ADAS-Cog) (Baseline ADAS-Cog >32): −1.6044 points | 8LSM (ADAS-Cog) (Baseline ADAS-Cog >32): −7.2739 | ALSM (ADAS-Cog) (Baseline ADAS-Cog >40): −0.2351 points | 8LSM (ADAS-Cog) (Baseline ADAS-Cog >40): −4.9348 | ALSM (ADAS-Cog) (Baseline ADAS-Cog ≤32): −2.1011 points | 8LSM (ADAS-Cog) (Baseline ADAS-Cog ≤32): −1.5266 | ALSM (ADAS-Cog) (Baseline ADAS-Cog ≤40): −2.3299 points | 8LSM (ADAS-Cog) (Baseline ADAS-Cog ≤40): −1.4472 | ΔLSM (ADAS-Cog) (Diagnosis >2 years): −1.3581 points | δLSM (ADAS-Cog) (Diagnosis >2 years): −1.2197 | ΔLSM (ADAS-Cog) (Diagnosis >3 years): −0.3770 points | δLSM (ADAS-Cog) (Diagnosis >3 years): −0.7048 | ΔLSM (ADAS-Cog) (Diagnosis >4 years): −1.3426 points | δLSM (ADAS-Cog) (Diagnosis >4 years): −1.2607 | ΔLSM (ADAS-Cog) (Diagnosis >5 years): −1.4470 points | δLSM (ADAS-Cog) (Diagnosis >5 years): −1.4756 | ΔLSM (ADAS-Cog) (Diagnosis ≤2 years): −2.7754 points | δLSM (ADAS-Cog) (Diagnosis ≤2 years): −1.6958 | ΔLSM (ADAS-Cog) (Diagnosis ≤3 years): −2.8700 points | δLSM (ADAS-Cog) (Diagnosis ≤3 years): −1.7671 | ΔLSM (ADAS-Cog) (Diagnosis ≤4 years): −2.3435 points | δLSM (ADAS-Cog) (Diagnosis ≤4 years): −1.4948 | ΔLSM (ADAS-Cog) (Diagnosis ≤5 years): −2.2599 points | δLSM (ADAS-Cog) (Diagnosis ≤5 years): −1.4394 | ΔLSM (ADAS-Cog) (MMSE <13): −0.4996 points | δLSM (ADAS-Cog) (MMSE <13): 2.1702 | ΔLSM (ADAS-Cog) (MMSE <14): 1.0497 points | δLSM (ADAS-Cog) (MMSE <14): 3.6165 | ΔLSM (ADAS-Cog) (MMSE <15): −1.0976 points | δLSM (ADAS-Cog) (MMSE <15): 1.5482 | ΔLSM (ADAS-Cog) (MMSE <16): −1.0624 points | δLSM (ADAS-Cog) (MMSE <16): 0.8538 | ΔLSM (ADAS-Cog) (MMSE <17): −1.0127 points | δLSM (ADAS-Cog) (MMSE <17): 0.9251 | ΔLSM (ADAS-Cog) (MMSE [12-20]): −1.7387 points | δLSM (ADAS-Cog) (MMSE [12-20]): −1.0350 | ΔLSM (ADAS-Cog) (MMSE [25-21]): −2.8929 points | δLSM (ADAS-Cog) (MMSE [25-21]): −2.4719 | ΔLSM (ADAS-Cog) (MMSE ≥13): −2.1488 points | δLSM (ADAS-Cog) (MMSE ≥13): −1.4717 | ΔLSM (ADAS-Cog) (MMSE ≥14): −2.4192 points | δLSM (ADAS-Cog) (MMSE ≥14): −1.8028 | ΔLSM (ADAS-Cog) (MMSE ≥15): −2.2577 points | δLSM (ADAS-Cog) (MMSE ≥15): −1.8834 | ΔLSM (ADAS-Cog) (MMSE ≥16): −2.2907 points | δLSM (ADAS-Cog) (MMSE ≥16): −2.0435 | ΔLSM (ADAS-Cog) (MMSE ≥17): −2.4915 points | δLSM (ADAS-Cog) (MMSE ≥17): −2.3004 | ΔLSM (ADAS-Cog) (Overall Population): −2.1485 points | δLSM (ADAS-Cog) (Overall Population): −1.4550 | Δsub/Δoverall (ratio of ΔLSM (ADAS-Cog) at W24, Diagnosis ≤2 years vs overall study population): 1.29 | Δsub/Δoverall (ratio of ΔLSM (ADAS-Cog) at W24, Diagnosis ≤3 years vs overall study population): 1.34 | Δsub/Δoverall (ratio of ΔLSM (ADAS-Cog) at W24, Diagnosis ≤4 years vs overall study population): 1.09 | Δsub/Δoverall (ratio of ΔLSM (ADAS-Cog) at W24, Diagnosis ≤5 years vs overall study population): 1.05 | Δsub/Δoverall (ratio of ΔLSM (ADAS-Cog) at W24, MMSE [20-12] vs overall study population): 0.81 | Δsub/Δoverall (ratio of ΔLSM (ADAS-Cog) at W24, MMSE [25-21] vs overall study population): 1.35 | Δsub/Δoverall (percentage improvement) (ΔLSM (ADAS-Cog) at W24, Diagnosis ≤2 years vs overall study population): 29% | Δsub/Δoverall (percentage improvement) (ΔLSM (ADAS-Cog) at W24, Diagnosis ≤2 years vs overall study population, listed as M4.5): (29%) | Δsub/Δoverall (percentage improvement) (ΔLSM (ADAS-Cog) at W24, Diagnosis ≤3 years vs overall study population): 34% | Δsub/Δoverall (percentage improvement) (ΔLSM (ADAS-Cog) at W24, Diagnosis ≤3 years vs overall study population, listed as M4.5): (34%) | Δsub/Δoverall (percentage improvement) (ΔLSM (ADAS-Cog) at W24, Diagnosis ≤4 years vs overall study population): (9%) | Δsub/Δoverall (percentage improvement) (ΔLSM (ADAS-Cog) at W24, Diagnosis ≤5 years vs overall study population): (5%) | Δsub/Δoverall (percentage improvement) (ΔLSM (ADAS-Cog) at W24, MMSE [20-12] vs overall study population): (−19%) | Δsub/Δoverall (percentage improvement) (ΔLSM (ADAS-Cog) at W24, MMSE [25-21] vs overall study population): 35% | Δsub/Δoverall (percentage improvement) (ΔLSM (ADAS-Cog) at W24, MMSE [25-21] vs overall study population, listed as M4.5): (35%) | improved benefit relative to complementary subpopulation (ΔLSM (ADAS-Cog), baseline MMSE 25 to 21 relative to MMSE 20 to 12, printed as 'between 99% to 66%'): 66%
